Source: paper PMC9743426, “Expanding the Chemical Space of Drug-like Passerini Compounds: Can α-Acyloxy Carboxamides Be Considered Hard Drugs?” (ACS Medicinal Chemistry Letters, 2022)

Assays:
[1] = Hydrolytic stability in mouse liver microsomes (MLM); type: in vitro ADME; conditions: 30 min; for Residual substrate percentage, MLM: mouse liver microsomes 1.0 mg/mL protein, substrate 10 μM, 37 °C
Experimental: (§1) For all 43 compounds, a first evaluation of their chemical and metabolic stabilities toward hydrolysis was performed by incubating them in buffer under physiological conditions (50 mM Tris-HCl, pH 7.4) and in mouse liver microsomes (Table 1). This model was chosen because, similar to the human liver, both of the carboxylesterase isoforms are present. […] A more interesting trend was instead possible to observe with benzoic acids.
(§2) Hydrolytic stability in MLM and HLM
(§3) The standard incubation mixture (200 µL final volume) was carried out in a 50 mM TRIS-HCl buffer (pH 7.4) containing 150 mM KCl, tween 80 as cosolvent (0.8 mg/mg protein), and the substrate (10 μM). After pre-equilibration of the mixture, an appropriate volume of MLM or HLM suspension was added to give a final protein concentration of 1.0 mg/mL. The mixture was shaken for 30 minutes at 37 °C. Control incubations were carried out without the presence or microsomes or in pure acetonitrile. Each incubation was stopped by the addition of 200 µL ice-cold acetonitrile, vortexed and centrifuged at 13000 rpm for 5 min. The supernatants were analyzed by LC-HRMS. […]

[2] = Hydrolytic (chemical) stability in Tris-HCl buffer pH 7.4; type: physicochemical; conditions: 50 mM Tris-HCl buffer pH 7.4, incubation 30 min, without microsomes
Experimental: as §1, §2, §3

[3] = Hydrolytic stability in human liver microsomes (HLM); type: in vitro ADME; conditions: 30 min
Experimental: This was made in light of the fact that the overall metabolizing capability of murine hepatic enzymes, including carboxylesterases, is supposed to be higher compared to the human ones.[17]
as §2, §3

Structure (SMILES) | Residual substrate percentage, MLM [1] | Hydrolysis of the ester group in mouse liver microsomes (in words) [1] | Residual substrate percentage, buffer [2] | Residual substrate percentage, HLM ([3]; human liver microsomes 1.0 mg/mL protein, substrate 10 μM, 37 °C) | Hydrolytic stability in human liver microsomes (in words) ([3]; human liver microsomes)
CCCCCCCCCCCC(=O)OC(C(=O)NC(C)(C)C)C(C)C (stereo not drawn) [Compound 77, 1-(tert-butylamino)-3-methyl-1-oxobutan-2-yl dodecanoate] | 7% | easily hydrolyzed | 77% | – | –
CC(C)(C)NC(=O)COC(=O)Cc1c(Cl)cccc1Cl [Compound 82] | 1% | easily hydrolyzed | >99% | – | –
CC(C)(C)NC(=O)COC(=O)c1ccccc1I [Compound 87] | <1% | the hydrolysis of the ester was complete | >99% | – | –
Cc1ccccc1C(=O)OCC(=O)NC(C)(C)C [Compound 81] | <1% | the hydrolysis of the ester was complete | >99% | – | –
CC(C)(C)NC(=O)C(OC(=O)c1ccccc1)c1ccccc1 (stereo not drawn) [Compound 62] | <1% | – | >99% | – | –
Cc1ccccc1C(OC(=O)c1ccccc1)C(=O)NC(C)(C)C (stereo not drawn) [Compound 56] | <1% | – | >99% | – | –
CC(C)(C)NC(=O)COC(=O)c1ccccc1 [Compound 61] | <1% | – | >99% | – | –
COc1ccc(C(OC(=O)c2ccccc2)C(=O)NC(C)(C)C)cc1 (stereo not drawn) [Compound 63] | <1% | – | 92% | – | –
Cc1ccc(C(=O)OC(C(=O)NC(C)(C)C)C(C)C)cc1 (stereo not drawn) [Compound 67] | <1% | – | 94% | – | –

Further lines, results first:

Residual substrate percentage, MLM [1] | Hydrolysis of the ester group in mouse liver microsomes (in words) [1] | Residual substrate percentage, buffer [2] | Residual substrate percentage, HLM ([3]; human liver microsomes 1.0 mg/mL protein, substrate 10 μM, 37 °C) | Hydrolytic stability in human liver microsomes (in words) ([3]; human liver microsomes) | Structure (SMILES)
<1% | – | 94% | – | – | CC(C)C(OC(=O)c1ccccc1)C(=O)NC(C)(C)C (stereo not drawn) [Compound 59]
<1% | – | 92% | – | – | COc1ccc(C(=O)OC(C(=O)NC(C)(C)C)C(C)C)cc1 (stereo not drawn) [Compound 66]
94% | – | 95% | – | – | Cc1cccc(C)c1C(=O)OCC(=O)NC(C)(C)C [Compound 79]
<1% | completely unstable | >99% | – | – | CC(C)C(OC(=O)COc1ccccc1)C(=O)NC(C)(C)C (stereo not drawn) [Compound 76, 1-(tert-butylamino)-3-methyl-1-oxobutan-2-yl 2-phenoxyacetate]
<1% | – | >99% | <1% | instability | CCCCCCC(OC(=O)c1cccs1)C(=O)NC(C)(C)C (stereo not drawn) [Compound 64]
– | – | >99% | – | – | CC(C)(C)NC(=O)COC(=O)c1ccccc1-c1ccccc1 [Compound 88]
>99% | – | >99% | – | – | Cc1cccc(C)c1C(=O)OC(C(=O)NC(C)(C)C)C(C)C (stereo not drawn) [Compound 93]
<1% | rapidly cleaved | >99% | – | – | CC(C)(C)NC(=O)C(OC(=O)c1ccccc1)c1ccc(Cl)cc1 (stereo not drawn) [Compound 72]
<1% | – | >99% | – | – | CC(C)C(OC(=O)c1ccc([N+](=O)[O-])cc1)C(=O)NC(C)(C)C (stereo not drawn) [Compound 69]
<1% | easily hydrolyzed | >99% | – | – | CCC(C(=O)OCC(=O)NC(C)(C)C)c1ccccc1 (stereo not drawn) [Compound 92]
>99% | – | >99% | – | – | Cc1cccc(C)c1C(=O)OCC(=O)NCc1ccccc1 [Compound 94]
